Data as given in the supplement of paper PMC10307832.

Columns and labels:
Assay in all cases: relative viability (nuclei count vs DMSO), 5 days (fraction); higher = more cells survive
Tipifarnib + AZD7762 = compound: Cn1cncc1[C@@](N)(c1ccc(Cl)cc1)c1ccc2c(c1)c(-c1cccc(Cl)c1)cc(=O)n2C [Tipifarnib] + NC(=O)Nc1cc(-c2cccc(F)c2)sc1C(=O)N[C@H]1CCCNC1 [AZD7762] (partner 0.2 µM)
Method in brief: (§1)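 A single step with final 0.05% Triton X-100, 1% formaldehyde and 1 ug/ml Hoechst fixed the cells and stained nuclei 5 days after treatment. Lung cancer cell lines in 1536-well plates had been treated by pin tool the day after seeding with one drug alone or a fixed anchor-drug dose plus five library-drug doses (not always all listed) in √10 steps, and nuclei were counted on 4× images. Relative viability is the ratio of nuclei in treated wells to nuclei in vehicle wells, taken as the median of duplicate plates.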

Tipifarnib + Lapatinib = compound: Cn1cncc1[C@@](N)(c1ccc(Cl)cc1)c1ccc2c(c1)c(-c1cccc(Cl)c1)cc(=O)n2C [Tipifarnib] + CS(=O)(=O)CCNCc1ccc(-c2ccc3ncnc(Nc4ccc(OCc5cccc(F)c5)c(Cl)c4)c3c2)o1 [Lapatinib] (partner 2 µM)
Method in brief: as §1

Tipifarnib + Decitabine = compound: Cn1cncc1[C@@](N)(c1ccc(Cl)cc1)c1ccc2c(c1)c(-c1cccc(Cl)c1)cc(=O)n2C [Tipifarnib] + Nc1ncn([C@H]2C[C@H](O)[C@@H](CO)O2)c(=O)n1 [Decitabine] (partner 2 µM)
Method in brief: as §1

Tipifarnib + Olaparib = compound: Cn1cncc1[C@@](N)(c1ccc(Cl)cc1)c1ccc2c(c1)c(-c1cccc(Cl)c1)cc(=O)n2C [Tipifarnib] + O=C(c1cc(Cc2n[nH]c(=O)c3ccccc23)ccc1F)N1CCN(C(=O)C2CC2)CC1 [Olaparib] (partner 8 µM)
Method in brief: as §1

| Cell Line | relative viability (Tipifarnib + AZD7762; first compound 0.01 µM) | relative viability (Tipifarnib + AZD7762; first compound 0.03162 µM) | relative viability (Tipifarnib + AZD7762; first compound 0.1 µM) | relative viability (Tipifarnib + AZD7762; first compound 0.3162 µM) | relative viability (Tipifarnib + AZD7762; first compound 1 µM) | relative viability (Tipifarnib + Lapatinib; first compound 0.01 µM) | relative viability (Tipifarnib + Lapatinib; first compound 0.03162 µM) | relative viability (Tipifarnib + Lapatinib; first compound 0.1 µM) | relative viability (Tipifarnib + Lapatinib; first compound 0.3162 µM) | relative viability (Tipifarnib + Lapatinib; first compound 1 µM) | relative viability (Tipifarnib + Decitabine; first compound 0.01 µM) | relative viability (Tipifarnib + Decitabine; first compound 0.03162 µM) | relative viability (Tipifarnib + Decitabine; first compound 0.1 µM) | relative viability (Tipifarnib + Decitabine; first compound 0.3162 µM) | relative viability (Tipifarnib + Decitabine; first compound 1 µM) | relative viability (Tipifarnib + Olaparib; first compound 0.01 µM) | relative viability (Tipifarnib + Olaparib; first compound 0.03162 µM) | relative viability (Tipifarnib + Olaparib; first compound 0.1 µM) | relative viability (Tipifarnib + Olaparib; first compound 0.3162 µM) | relative viability (Tipifarnib + Olaparib; first compound 1 µM) |
| --- | --- | --- | --- | --- | --- | --- | --- | --- | --- | --- | --- | --- | --- | --- | --- | --- | --- | --- | --- | --- |
| NCI-H2347 | 0.834 | 0.721 | 0.665 | 0.505 | 0.61 | 0.827 | 0.727 | 0.642 | 0.582 | 0.642 | 0.593 | 0.553 | 0.581 | 0.527 | 0.521 | 0.59 | 0.46 | 0.563 | 0.473 | 0.472 |
| NCI-H2405 | 0.759 | 0.758 | 0.688 | 0.523 | 0.589 | 1.06 | 0.942 | 0.949 | 0.878 | 0.625 | 0.783 | 0.688 | 0.721 | 0.683 | 0.73 | 0.88 | 0.899 | 0.903 | 0.801 | 0.838 |
| NCI-H3122 | 0.967 | 0.971 | 0.714 | 0.556 | 0.348 | 1.01 | 0.917 | 0.961 | 0.73 | 0.811 | 0.414 | 0.407 | 0.415 | 0.397 | 0.308 | 0.685 | 0.681 | 0.482 | 0.422 | 0.415 |
| PC-3 [JPC-3] | 0.805 | 0.714 | 0.532 | 0.519 | 0.457 | 0.461 | 0.489 | 0.431 | 0.38 | 0.311 | 0.866 | 0.872 | 0.828 | 0.644 | 0.648 | 1.19 | 0.978 | 0.981 | 0.775 | 0.654 |
| PC-14 | 0.322 | 0.228 | 0.227 | 0.136 | 0.16 | 0.346 | 0.327 | 0.242 | 0.226 | 0.15 | 0.223 | 0.183 | 0.221 | 0.189 | 0.145 | 0.278 | 0.206 | 0.279 | 0.176 | 0.176 |
| RERF-LC-KJ | 1.02 | 1.22 | 0.975 | 0.656 | 0.243 | 0.94 | 0.922 | 0.829 | 0.732 | 0.626 | 0.848 | 0.691 | 0.733 | 0.451 | 0.478 | 0.993 | 0.898 | 0.864 | 0.718 | 0.699 |
